Usually IC50 stands for the concentration that gives 50% inhibition.

Where two headings read alike, the source gives them in different places.

43 compounds from patent US9656971B2, “COMT inhibitors” (Hoffmann-La Roche Inc., priority 2012, dated 2017) can be followed below.

For this test, the target named is T1, Rec. human COMT (Homo sapiens, UniProt P21964).
T1 sequence (P21964 1-271): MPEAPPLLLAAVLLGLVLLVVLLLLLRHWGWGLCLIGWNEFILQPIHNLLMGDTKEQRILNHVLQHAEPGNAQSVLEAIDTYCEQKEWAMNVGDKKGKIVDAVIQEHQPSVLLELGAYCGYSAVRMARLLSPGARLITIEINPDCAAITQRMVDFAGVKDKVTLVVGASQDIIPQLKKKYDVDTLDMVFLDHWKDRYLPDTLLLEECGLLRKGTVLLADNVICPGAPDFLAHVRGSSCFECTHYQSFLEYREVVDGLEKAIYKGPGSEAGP
The test can be described thus: COMT-Fluorescence Assay. To be noted: rec. human COMT 25 nM, 4-Nitrocatechol-Alexa488 200 nM, SAM 500 nM. The test is classed as biochemical. The procedure:
This intramolecular interaction is disturbed if the 4-Nitrocatechol is methylated. […] This increase of fluorescence intensity can be followed in a kinetic measurement. The slope in the linear range of the kinetic is calculated. An inhibitor compound decreases the slope.
Signal [rfu/min]=(rfu(end-point)−rfu(startpoint))/incubation_time_#2

Where [1] appears, read: COMT-fluorescence assay, read-out: IC50.

In the case of `O=c1[nH]cnc2c(O)cc(-c3ccccc3COCCC3CCN(CC(F)(F)F)CC3)cc12` [Example 118, 8-Hydroxy-6-(2-((2-(1-(2,2,2-trifluoroethyl)piperidin-4-yl)ethoxy)methyl)phenyl)quinazolin-4(3H)-one 2,2,2-trifluoroacetate], under setting [1], the IC50 worked out at 0.01 µM.
Still for that read-out and setting: with `O=c1[nH]cnc2c(O)cc(-c3ccccc3-c3ccccc3)cc12` [Example 214, 6-(Biphenyl-2-yl)-8-hydroxyquinazolin-4(3H)-one] the figure was 0.64 µM; with `N#Cc1c(-c2ccc(F)cc2)cc(O)c2nc[nH]c(=O)c12` [Example 54, 6-(4-Fluorophenyl)-8-hydroxy-4-oxo-3,4-dihydroquinazoline-5-carbonitrile], 0.06 µM.
On the same count and under the same terms, for `COc1ncc(-c2cc(O)c3nc[nH]c(=O)c3c2)c(OC)n1` [Example 160, 6-(2,4-Dimethoxypyrimidin-5-yl)-8-hydroxyquinazolin-4(3H)-one] the value was 0.08 µM; for `N#CCc1ccccc1-c1cc(O)c2nc[nH]c(=O)c2c1` [Example 208, 2-(2-(8-Hydroxy-4-oxo-3,4-dihydroquinazolin-6-yl)phenyl)acetonitrile], 0.05 µM.
Same read-out and setting: for `Cc1ccc(C(=O)c2cc(O)c3nc[nH]c(=O)c3c2)cc1` [Example 66, 8-Hydroxy-6-(4-methylbenzoyl)quinazolin-4(3H)-one] the value was 0.1 µM; for `O=c1[nH]cnc2c(O)cc(Oc3ccc(F)cc3)cc12` [Example 189, 6-(4-Fluorophenoxy)-8-hydroxyquinazolin-4(3H)-one], 0.84 µM.
`O=c1[nH]cnc2c(O)cc(-c3ccc4c(c3)OCC4)cc12` [Example 25, 6-(2,3-Dihydrobenzofuran-6-yl)-8-hydroxyquinazolin-4(3H)-one]: the IC50 (IC50, COMT-fluorescence assay) was 0.02 µM.
With `O=C(NCC(F)(F)F)c1cc(O)c2nc[nH]c(=O)c2c1` [Example 5, 8-Hydroxy-4-oxo-N-(2,2,2-trifluoroethyl)-3,4-dihydroquinazoline-6-carboxamide], the IC50 under setting [1] amounted to 0.66 µM.
On the same count and under the same terms, with `O=C(c1ccncc1)c1cc(O)c2nc[nH]c(=O)c2c1` [Example 93, 8-Hydroxy-6-isonicotinoylquinazolin-4(3H)-one] the figure was 0.16 µM; with `O=C(c1cc(O)c2nc[nH]c(=O)c2c1)N1CCOCC1` [Example 3, 8-Hydroxy-6-(morpholine-4-carbonyl)quinazolin-4(3H)-one], 4.21 µM.
Still for that read-out and setting: for `Cc1noc(C)c1-c1cc(O)c2nc[nH]c(=O)c2c1` [Example 78, 6-(3,5-Dimethylisoxazol-4-yl)-8-hydroxyquinazolin-4(3H)-one] the value was 0.32 µM; for `O=c1[nH]cnc2c(O)cc(-c3ccccc3COCCN3CCN(CC(F)(F)F)CC3)cc12` [Example 121, 8-Hydroxy-6-(2-((2-(4-(2,2,2-trifluoroethyl)piperazin-1-yl)ethoxy)methyl)phenyl)quinazolin-4(3H)-one 2,2,2-trifluoroacetate], 0.03 µM; for `O=c1[nH]cnc2c(O)cc(-c3ccccc3OCc3ccccc3)cc12` [Example 227, 6-(2-(Benzyloxy)phenyl)-8-hydroxyquinazolin-4(3H)-one], 0.05 µM.
Compound `O=c1[nH]cnc2c(O)cc(-c3cccc(N4CCOCC4)c3)cc12` [Example 146, 8-Hydroxy-6-(3-morpholinophenyl)quinazolin-4(3H)-one] yielded an IC50 (IC50, COMT-fluorescence assay) of 0.02 µM.
Take `CN(C)CCNC(=O)c1ccc(-c2cc(O)c3nc[nH]c(=O)c3c2)cc1` [Example 173, N-(2-(Dimethylamino)ethyl)-4-(8-hydroxy-4-oxo-3,4-dihydroquinazolin-6-yl)benzamide]: under setting [1], the IC50 came to 0.05 µM.
Still for that read-out and setting: for `Cc1ccc(-c2c(-c3ccc(F)cc3)c(Br)c(O)c3nc[nH]c(=O)c23)cc1` [Example 51, 7-bromo-6-(4-fluorophenyl)-8-hydroxy-5-p-tolylquinazolin-4(3H)-one] the value was 0.26 µM.
As to `O=c1[nH]cnc2c(O)cc(-c3ccc(S(F)(F)(F)(F)F)cc3)cc12` [Example 100, 6-(4-Pentafluorosulfanylphenyl)-8-hydroxyquinazolin-4(3H)-one], under setting [1], the IC50 was found to be 0.05 µM.
The same measure, in the same setting: with `CCc1ccccc1-c1cc(O)c2nc[nH]c(=O)c2c1` [Example 217, 6-(2-Ethylphenyl)-8-hydroxyquinazolin-4(3H)-one] the figure was 0.05 µM; with `CC(C)(O)c1ccccc1-c1cc(O)c2nc[nH]c(=O)c2c1` [Example 113, 8-Hydroxy-6-(2-(2-hydroxypropan-2-yl)phenyl)quinazolin-4(3H)-one], 3.6 µM.
`O=c1[nH]cnc2c(O)cc(-c3ccc(O)cc3)cc12` [Example 129, 8-Hydroxy-6-(4-hydroxyphenyl)quinazolin-4(3H)-one] gave an IC50 (IC50, COMT-fluorescence assay) of 0.03 µM.
As for `CN(C)c1cccc(-c2cc(O)c3nc[nH]c(=O)c3c2)n1` [Example 183, 6-(6-(Dimethylamino)pyridin-2-yl)-8-hydroxyquinazolin-4(3H)-one], the IC50 under setting [1] was determined as 0.07 µM.
For the compound `CC(=O)Nc1ccccc1-c1cc(O)c2nc[nH]c(=O)c2c1` [Example 159, N-(2-(8-Hydroxy-4-oxo-3,4-dihydroquinazolin-6-yl)phenyl)acetamide], the IC50 under setting [1] amounted to 0.55 µM.
Still for that read-out and setting: for `O=c1[nH]cnc2c(O)cc(-c3ccc(F)cc3)cc12` [Example 125, 6-(4-Fluorophenyl)-8-hydroxyquinazolin-4(3H)-one] the value was 0.02 µM; for `O=c1[nH]cnc2c(O)ccc(C(F)(F)F)c12` [Example 42, 8-Hydroxy-5-(trifluoromethyl)quinazolin-4(3H)-one], 1.03 µM.
The same measure, in the same setting: for `O=C(c1ccc(-c2cc(O)c3nc[nH]c(=O)c3c2)cc1)N1CCC(F)(F)CC1` [Example 200, 6-[4-(4,4-Difluoro-piperidine-1-carbonyl)-phenyl]-8-hydroxy-3H-quinazolin-4-one] the value was 0.01 µM; for `O=c1[nH]cnc2c(O)cc(-c3ccccc3COCCN3CCCC3)cc12` [Example 238, 8-Hydroxy-6-(2-((2-(pyrrolidin-1-yl)ethoxy)methyl)phenyl)quinazolin-4(3H)-one], 0.03 µM; for `O=c1[nH]cnc2c(O)c(F)c(Br)c(-c3ccc(F)cc3)c12` [Example 244, 6-Bromo-7-fluoro-5-(4-fluoro-phenyl)-8-hydroxy-3H-quinazolin-4-one], 0.15 µM.
`O=c1[nH]cnc2c(O)cc(-c3ccccc3OC(F)(F)F)cc12` [Example 145, 8-Hydroxy-6-(2-trifluoromethoxy-phenyl)-3H-quinazolin-4-one]: the IC50 under setting [1] amounted to 0.07 µM.
Still for that read-out and setting: with `Cc1ccccc1-c1cc(O)c2nc[nH]c(=O)c2c1` [Example 210, 8-Hydroxy-6-o-tolylquinazolin-4(3H)-one] the figure was 0.03 µM; with `COCc1cc(C(=O)N(CCN(C(C)C)C(C)C)C(C)C)ccc1-c1cc(O)c2nc[nH]c(=O)c2c1` [Example 106, N-(2-(Diisopropylamino)ethyl)-4-(8-hydroxy-4-oxo-3,4-dihydroquinazolin-6-yl)-N-isopropyl-3-(methoxymethyl)benzamide 2,2,2-trifluoroacetate], 0.02 µM.
Same read-out and setting: with `O=C(Nc1c(-c2ccc(F)cc2)cc(O)c2nc[nH]c(=O)c12)c1ccccc1` [Example 254, N-(6-(4-Fluorophenyl)-8-hydroxy-4-oxo-3,4-dihydroquinazolin-5-yl)benzamide] the figure was 1.4 µM.
Same read-out and setting: for `CCOc1cc(F)ccc1-c1cc(O)c2nc[nH]c(=O)c2c1` [Example 211, 6-(2-Ethoxy-4-fluorophenyl)-8-hydroxyquinazolin-4(3H)-one] the value was 0.07 µM.
As to `CC(C)c1cc(O)c2nc[nH]c(=O)c2c1` [Example 13, 8-Hydroxy-6-isopropylquinazolin-4(3H)-one], under setting [1], the IC50 worked out at 1 µM.
On the same count and under the same terms, with `O=c1[nH]cnc2c(O)c(F)c(-c3ccccc3)c(F)c12` [Example 38, 5,7-Difluoro-8-hydroxy-6-phenylquinazolin-4(3H)-one] the figure was 0.03 µM; with `O=C(c1cccc(-c2cc(O)c3nc[nH]c(=O)c3c2)c1)N1CCS(=O)(=O)CC1` [Example 192, 6-[3-(1,1-Dioxo-1λ^6-thiomorpholine-4-carbonyl)-phenyl]-8-hydroxy-3H-quinazolin-4-one], 0.02 µM; with `O=c1[nH]cnc2c(O)cc(-c3cscn3)cc12` [Example 91, 8-Hydroxy-6-(thiazol-4-yl)quinazolin-4(3H)-one], 0.1 µM.
On the same count and under the same terms, with `O=c1[nH]cnc2c(O)cc(N3CCOCC3)cc12` [Example 187, 8-Hydroxy-6-morpholinoquinazolin-4(3H)-one] the figure was 0.71 µM; with `Cn1nccc1-c1cc(O)c2nc[nH]c(=O)c2c1` [Example 181, 8-Hydroxy-6-(1-methyl-1H-pyrazol-5-yl)quinazolin-4(3H)-one], 0.02 µM; with `O=c1[nH]cnc2c(O)cc(-c3cnn(-c4ccc(F)cc4)c3)cc12` [Example 152, 6-[1-(4-Fluoro-phenyl)-1H-pyrazol-4-yl]-8-hydroxy-3H-quinazolin-4-one], 0.07 µM.
On the same count and under the same terms, for `Cn1ncc2cc(-c3cc(O)c4nc[nH]c(=O)c4c3)ccc21` [Example 96, 8-Hydroxy-6-(1-methyl-1H-indazol-5-yl)quinazolin-4(3H)-one] the value was 0.03 µM.
Where the note is “IC50, COMT-fluorescence assay”, `CS(=O)(=O)c1cccc(-c2cc(O)c3nc[nH]c(=O)c3c2)c1` [Example 157, 8-Hydroxy-6-(3-(methylsulfonyl)phenyl)quinazolin-4(3H)-one] returned an IC50 of 0.02 µM.
The same measure, in the same setting: with `CCOc1cc(Cl)ccc1-c1cc(O)c2nc[nH]c(=O)c2c1` [Example 215, 6-(4-Chloro-2-ethoxyphenyl)-8-hydroxyquinazolin-4(3H)-one] the figure was 0.07 µM.
